Like-named read-outs stand apart in the source and are kept apart here.
Tests used:
[1] = target: heteromeric rod CNG channels consisting of CNGA1 and CNGB1 subunits (Bos taurus, UniProt Q00194+Q28181); assay: biochemical; type: cell-based; conditions: for Kd: 2 mM cGMP
Protocol: Currents were elicited by a voltage step protocol from 0 to −50 to +50 mV (See FIG. 1) in the presence of 2 mM cGMP or 2 mM cGMP and compound (5 μM). Time scale is shown in the lower left-hand corner of the panel and FIG. 1, and the zero current level is indicated by the dotted line.
The solid line indicates the fit of the equation for block at a single binding site.
Time scale is shown in the lower left-hand corner of the panel and FIG. 1, and the zero current level is indicated by the dotted line. […] Solid line indicates the fit of the equation for block at a single binding site.
The effectiveness of retinal rod CNG channel current block by the disclosed compounds was tested in Xenopus oocyte preparations. Excised, inside-out patches pulled from oocytes expressed heteromeric rod CNG channels consisting of CNGA1 and CNGB1 subunits. […] CNG channel currents were elicited by a voltage step protocol to −50 and +50 mV (FIG. 1). The apparent KD value at each membrane potential was estimated first by determining I+B and I−B at steady state, where I+B is the current in the presence of blocker and I−B is current in the absence of blocker, for different blocker concentrations ([B]).
Ovaries were surgically removed from adult Xenopus laevis females (Xenopus Express; Brooksville, Fla.) anesthetized with ice-cold 0.1% tricaine and 0.1% NaHCO3 solution. Oocytes were chemically released from ovarian follicles in Ca^2+-free Barth's solution (88 mM NaCl, 1 mM KCl, 2.4 mM NaHCO3, 0.82 mM MgSO4, 7.5 mM Tris, 2.5 mM sodium pyruvate, 100 U/mL penicillin, and 100 μg/mL streptomycin, pH 7.4) containing 0.1 U/mL Liberase Blendzymes (Roche, Indianapolis, Ind.). Stages IV and V oocytes were visually sorted and stored in ND-96 (96 mM NaCl, 2 mM KCl, 1.8 mM CaCl2, 1 mM MgCl2, 5 mM HEPES, 2.5 mM sodium pyruvate, 100 U/mL penicillin, and 100 μg/mL streptomycin, pH 7.4) at 16° C. Oocytes were co-injected the following day with 33 ng of CNGA1 and 67 ng of CNGB1 cRNA […] synthesized from linearized pGEM-HE expression vectors containing the channel subunit cDNA sequence (Strassmaier T & Karpen J, J Med Chem 50, 4186-4194, (2007), incorporated by reference herein) using T7 mMESSAGE mMACHINE® (Ambion, Austin, Tex.). Injected oocytes were incubated at 18° C. the first day and 16° C. for the remaining days.
(§1) Recordings from inside-out excised patches were made 3-7 days after oocyte injection on an Axopatch 1D® amplifier (Axon Instruments, Foster City, Calif.). Briefly, oocyte vitelline membranes were removed in solution containing 200 mM K aspartate, 20 mM KCl, 1 mM MgCl2, 10 mM EGTA, 10 mM HEPES, pH 7.4. Oocytes were placed in a recording chamber in a solution containing 130 mM NaCl, 2 mM HEPES, 0.02 mM EDTA, 1 mM EGTA, pH 7.6, and borosilicate glass electrodes (1-3 MΩ) were filled with identical solution. Macroscopic currents were filtered at 1 kHz and sampled at 2 kHz using pCLAMP 8.0® software (Axon Instruments). Channels were either fully activated with 2 mM or partially activated with 50 and 100 μM cGMP. […] Glass syringes and Teflon tubing were used to minimize the binding of compounds to surfaces; concentrations passing through the perfusion system were verified by absorbance.

chymotrypsin = target: T1, chymotrypsin (Bos taurus, UniProt P00766); assay: In vitro hydrolysis by chymotrypsin; type: in vitro ADME
T1 construct: purchased Worthington Biochemical Co
Protocol: All enzymatic assays were performed with 50 μM compound in 0.1M phosphate buffer, pH 7.4, at 37° C. with stirring, unless otherwise noted. Butyrylcholinesterase stock solutions from human serum (Sigma, St. Louis, Mo.) were prepared at 100 U/mL in 0.1 M phosphate buffer, pH 7.4, and stored at −20° C. until use. Hydrolysis was monitored on an 8452A diode array spectrophotometer (Hewlett-Packard). Product peak wavelength absorption was immediately monitored upon addition of compound. Absorbances for complete hydrolysis were determined when there were no further detectable changes. […] All hydrolysis assays were performed in triplicate, and final rate constants are expressed as the mean±SD of the three individually determined rate constants. […] Activity of chymotrypsin (bovine, Worthington Biochemical Co., 190 μg/mL) was verified with 90 μM 4-nitrophenyl acetate in 0.1 M HEPES solution, pH 6.5, at 37° C. with stirring. Hydrolysis product was monitored at 404 nm for 10 min. Activity of proteinase K (from Engyodontium album, Sigma, 165 μg/mL) was verified with 16.5 mg/mL bovine serum albumin in 0.1 M phosphate buffer, pH 7.4, at 37° C. Samples were taken at time point increments up to 2 hours when the reaction reached completion. Samples were analyzed with 12% SDS-PAGE, stained with 0.1% Coomassie Blue.

[2] = tested on: heteromeric rod CNG channels consisting of CNGA1 and CNGB1 subunits; assay: CNG channel block at subsaturating cGMP (state dependence of block); type: cell-based; conditions: subsaturating cGMP (50 or 100 μM), +50 mV, normalized to KD at 2 mM cGMP
Text: KD values at saturating cGMP were corrected for ion accumulation. Solid lines indicate simulations for exclusive closed channel blockers, using KD/KDsat=(1−Fsat)/(1−FsatI/Imax), where Fsat is the estimated fraction of open heteromeric rod channels in saturating cGMP assuming Fsat=0.3 (a), 0.56 (b), or 0.78 (c). The dotted line is a simulation for a blocker with no preference for state, or KD/KDsat=1. The dashed line is a simulation for an exclusive open channel blocker, using KD/KDsat=(I/Imax)^−1.
The solid lines in FIG. 4 marked a, b, and c represent the expected relationship between KD and the fraction of closed channels for an exclusive closed channel blocker. Each of a, b, and c uses one estimate for the probability of closed heteromeric retinal rod channels at saturating cGMP. The simulations are described in the following references: Matthews G et al, J Physiol 403, 389-405 (1988); Taylor W R & Baylor D A, J Physiol 483 567-582 (1995); and Bucossi G et al, Biophys J 72, 1165-1181 (1997), all of which are incorporated by reference herein. The dotted line represents a simulation of a blocker with no preference as to conformational of the channel. The dashed line represents a simulation for an exclusive open channel blocker.
as §1, with “absorbance. Current traces were digitally filtered at 300 Hz (Gaussian) and averaged using Clampfit 8.2® software. Currents in the absence of cGMP were subtracted from all currents analyzed. KD values were determined and expressed as the mean±SD.” for “absorbance.”

[3] = target: T2, Butyrylcholinesterase purified from human blood serum (Homo sapiens, UniProt P06276); assay: In vitro hydrolysis by serum cholinesterase (butyrylcholinesterase); type: in vitro ADME; conditions: 50 μM compound, 0.1M phosphate buffer pH 7.4, 37° C.; mean±SD of triplicate
T2 construct: Butyrylcholinesterase purified from human blood serum; purchased Sigma; host or cells: purified from human blood serum
Protocol: Compound 1 is rapidly hydrolyzed by butyrylcholinesterase in the bloodstream. Butyrylcholinesterase purified from human blood serum was used to test the resistance of the disclosed compounds to hydrolysis.
All enzymatic assays were performed with 50 μM compound in 0.1M phosphate buffer, pH 7.4, at 37° C. with stirring, unless otherwise noted. Butyrylcholinesterase stock solutions from human serum (Sigma, St. Louis, Mo.) were prepared at 100 U/mL in 0.1 M phosphate buffer, pH 7.4, and stored at −20° C. until use. Hydrolysis was monitored on an 8452A diode array spectrophotometer (Hewlett-Packard). Product peak wavelength absorption was immediately monitored upon addition of compound. Absorbances for complete hydrolysis were determined when there were no further detectable changes. […] All hydrolysis assays were performed in triplicate, and final rate constants are expressed as the mean±SD of the three individually determined rate constants. In some experiments with compound 1, samples were taken at the beginning and end of the assay to verify the hydrolysis product and the completion of the reaction by HPLC. These samples were compared to compounds 1 and 3 on a C18 column eluted with 0.1% TFA in water/acetonitrile. Activity of chymotrypsin (bovine, Worthington Biochemical Co., 190 μg/mL) was verified with 90 μM 4-nitrophenyl acetate in 0.1 M HEPES solution, pH 6.5, at 37° C. with stirring. Hydrolysis product was monitored at 404 nm for 10 min. Activity of proteinase K (from Engyodontium album, Sigma, 165 μg/mL) was verified with 16.5 mg/mL bovine serum albumin in 0.1 M phosphate buffer, pH 7.4, at 37° C. Samples were taken at time point increments up to 2 hours when the reaction reached completion. Samples were analyzed with 12% SDS-PAGE, stained with 0.1% Coomassie Blue.

[4] = Table 2 (butyl series), +50 mV, read-out: KD(+50)
[5] = Table 2 (butyl series), −50 mV, read-out: KD(−50)
[6] = octyl series table, +50 mV, read-out: KD(+50)
[7] = octyl series table, −50 mV, read-out: KD(−50)

Chain of heteromeric rod CNG channels consisting of CNGA1 and CNGB1 subunits (Bos taurus, UniProt Q00194+Q28181) (Q00194 whole entry): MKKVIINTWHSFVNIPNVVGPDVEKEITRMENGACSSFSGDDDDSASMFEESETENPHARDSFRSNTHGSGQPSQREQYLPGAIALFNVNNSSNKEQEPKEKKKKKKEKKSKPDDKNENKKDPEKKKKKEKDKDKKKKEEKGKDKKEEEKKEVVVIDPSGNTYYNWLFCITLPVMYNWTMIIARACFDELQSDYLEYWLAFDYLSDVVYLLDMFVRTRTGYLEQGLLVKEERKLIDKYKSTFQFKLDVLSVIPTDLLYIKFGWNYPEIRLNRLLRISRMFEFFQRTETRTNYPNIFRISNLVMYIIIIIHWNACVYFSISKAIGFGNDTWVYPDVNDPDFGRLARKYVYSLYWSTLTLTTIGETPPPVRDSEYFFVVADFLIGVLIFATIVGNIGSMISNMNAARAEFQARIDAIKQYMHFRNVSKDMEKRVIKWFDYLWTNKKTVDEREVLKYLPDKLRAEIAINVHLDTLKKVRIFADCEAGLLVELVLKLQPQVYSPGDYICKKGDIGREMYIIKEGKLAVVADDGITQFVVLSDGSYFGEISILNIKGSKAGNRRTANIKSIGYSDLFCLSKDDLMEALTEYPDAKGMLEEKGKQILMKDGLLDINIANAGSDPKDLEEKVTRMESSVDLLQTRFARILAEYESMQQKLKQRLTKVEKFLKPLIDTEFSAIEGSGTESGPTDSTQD
Chain of heteromeric rod CNG channels consisting of CNGA1 and CNGB1 subunits (Bos taurus, UniProt Q00194+Q28181) (Q28181 whole entry): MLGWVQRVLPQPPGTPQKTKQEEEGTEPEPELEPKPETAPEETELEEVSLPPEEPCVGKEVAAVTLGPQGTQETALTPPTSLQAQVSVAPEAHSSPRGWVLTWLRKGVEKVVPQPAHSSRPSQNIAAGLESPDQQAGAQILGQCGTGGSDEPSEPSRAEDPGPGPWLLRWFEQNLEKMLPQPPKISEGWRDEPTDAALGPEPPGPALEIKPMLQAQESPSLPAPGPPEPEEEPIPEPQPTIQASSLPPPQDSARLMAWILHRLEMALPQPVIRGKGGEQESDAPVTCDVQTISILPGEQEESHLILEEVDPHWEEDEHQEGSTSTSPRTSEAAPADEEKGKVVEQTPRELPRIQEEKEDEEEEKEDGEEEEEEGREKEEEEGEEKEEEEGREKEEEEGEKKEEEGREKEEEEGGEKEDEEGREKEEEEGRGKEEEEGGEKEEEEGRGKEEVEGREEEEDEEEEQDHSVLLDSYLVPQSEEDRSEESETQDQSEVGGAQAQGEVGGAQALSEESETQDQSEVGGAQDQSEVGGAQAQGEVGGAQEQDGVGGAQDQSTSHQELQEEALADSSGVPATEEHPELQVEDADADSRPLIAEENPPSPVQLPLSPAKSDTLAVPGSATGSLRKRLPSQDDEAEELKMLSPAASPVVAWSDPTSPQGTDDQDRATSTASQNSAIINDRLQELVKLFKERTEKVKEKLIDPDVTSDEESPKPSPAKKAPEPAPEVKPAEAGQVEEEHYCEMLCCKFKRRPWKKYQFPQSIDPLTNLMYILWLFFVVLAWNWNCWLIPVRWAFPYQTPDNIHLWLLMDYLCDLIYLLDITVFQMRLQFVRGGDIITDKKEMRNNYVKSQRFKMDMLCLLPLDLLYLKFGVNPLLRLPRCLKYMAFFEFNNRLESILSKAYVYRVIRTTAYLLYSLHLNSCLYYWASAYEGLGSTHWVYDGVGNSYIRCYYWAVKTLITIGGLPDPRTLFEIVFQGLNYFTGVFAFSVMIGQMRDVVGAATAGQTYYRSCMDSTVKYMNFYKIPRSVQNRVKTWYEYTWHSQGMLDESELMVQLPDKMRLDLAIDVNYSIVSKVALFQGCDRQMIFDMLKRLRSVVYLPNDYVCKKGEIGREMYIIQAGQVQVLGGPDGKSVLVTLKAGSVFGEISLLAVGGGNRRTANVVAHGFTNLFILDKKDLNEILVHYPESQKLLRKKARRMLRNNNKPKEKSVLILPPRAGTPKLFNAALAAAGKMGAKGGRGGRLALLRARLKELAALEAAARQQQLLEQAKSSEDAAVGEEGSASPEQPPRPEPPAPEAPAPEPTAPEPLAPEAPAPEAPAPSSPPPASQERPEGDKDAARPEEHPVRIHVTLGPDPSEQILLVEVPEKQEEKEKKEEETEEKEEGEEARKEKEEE
T2 sequence (P06276 29-602): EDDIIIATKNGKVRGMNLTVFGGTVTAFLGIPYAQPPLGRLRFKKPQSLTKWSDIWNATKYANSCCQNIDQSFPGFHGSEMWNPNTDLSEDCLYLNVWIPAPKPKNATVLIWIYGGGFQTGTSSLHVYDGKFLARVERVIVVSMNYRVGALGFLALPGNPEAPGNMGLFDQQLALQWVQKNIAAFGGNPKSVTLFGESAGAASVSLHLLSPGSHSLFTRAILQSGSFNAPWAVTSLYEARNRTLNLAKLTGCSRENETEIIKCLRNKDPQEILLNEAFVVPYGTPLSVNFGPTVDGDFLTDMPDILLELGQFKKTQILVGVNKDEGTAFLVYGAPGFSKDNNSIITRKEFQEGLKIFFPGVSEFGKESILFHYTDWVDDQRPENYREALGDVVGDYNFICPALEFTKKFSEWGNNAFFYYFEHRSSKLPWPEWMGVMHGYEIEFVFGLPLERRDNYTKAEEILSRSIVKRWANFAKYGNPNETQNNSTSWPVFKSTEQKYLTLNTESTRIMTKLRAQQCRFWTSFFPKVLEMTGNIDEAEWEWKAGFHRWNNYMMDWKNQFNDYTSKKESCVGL

Row | Structure (SMILES) | Kd [1, 6] [nM] | Kd [1, 7] [nM] | other results
1 | COc1ccc([C@H]2Sc3ccccc3N(CCN(C)C)C(=O)[C@H]2OC(C)=O)cc1 (relative stereo) [l-cis-diltiazem, reference compound] |  |  | block of 2 mM cGMP-induced currents [1]: 74.2±5.8%
2 | CC(=O)Oc1ccc([N+](=O)[O-])cc1 [4-nitrophenyl acetate, reference compound] |  |  | hydrolysis products with chymotrypsin (chymotrypsin): detected
3 | CCCCNc1ccc(C(=O)OCCN(C)C)cc1 [Compound 1, 2-(dimethylamino)ethyl 4-(butylamino)benzoate, reference compound] |  |  | state dependence of block (KD vs fraction of closed channels) [2]: better fit the results expected of a closed channel blocker; Hydrolysis rate [3]: 132 ± 10 nmol/min/mg
4 | CCCCNc1ccc(C(=O)OCCN(C)C)cc1[N+](=O)[O-] [Compound 12a, 2-(dimethylamino)ethyl 4-(butylamino)-3-nitrobenzoate] |  |  | Kd [1, 4]: 5500 ± 3200 nM; Kd [1, 5]: 19600 ± 14400 nM
5 | CCCCNc1ccc(C(=O)OCCN(C)C)cc1OC [Compound 12b, 2-(dimethylamino)ethyl 4-(butylamino)-3-methoxybenzoate] |  |  | Kd [1, 4]: 4300 ± 800 nM; Kd [1, 5]: 18300 ± 4400 nM
6 | CCCCNc1ccc(C(=O)OCCN(C)C)cc1C [Compound 12c, 2-(dimethylamino)ethyl 4-(butylamino)-3-methylbenzoate] |  |  | Kd [1, 4]: 7800 ± 3100 nM; Kd [1, 5]: 28100 ± 13400 nM
7 | CCCCNc1ccc(C(=O)OCCN(C)C)cc1Cl [Compound 12d, 2-(dimethylamino)ethyl 4-(butylamino)-3-chlorobenzoate] |  |  | improvement of affinity / blocking potency compared to compound 1 (tetracaine) [1]: 1.6 fold; Kd [1, 4]: 3000 ± 1000 nM; Kd [1, 5]: 12800 ± 4100 nM
8 | CCCCCCCCNc1ccc(C(=O)OCCN(C)C)cc1[N+](=O)[O-] [Compound 14a, 2-(dimethylamino)ethyl 4-(octylamino)-3-nitrobenzoate] | 8000 ± 5800 | 12600 ± 7300 | 
9 | CCCCCCCCNc1ccc(C(=O)OCCN(C)C)cc1OC [Compound 14b, 2-(dimethylamino)ethyl 4-(octylamino)-3-methoxybenzoate] | 1250 ± 1230 | 3000 ± 3400 | 
10 | CCCCCCCCNc1ccc(C(=O)OCCN(C)C)cc1C [Compound 14c, 2-(dimethylamino)ethyl 4-(octylamino)-3-methylbenzoate] | 500 ± 420 | 1410 ± 840 | 
11 | CCCCCCCCNc1ccc(C(=O)OCCN(C)C)cc1Cl [Compound 14d, 2-(dimethylamino)ethyl 4-(octylamino)-3-chlorobenzoate] | 140 ± 40 | 380 ± 160 | improvement of affinity / blocking potency compared to compound 5 [1]: approximately six-fold improvement
12 | CCCCCCCCNc1ccc(C(=O)OCCN(C)C)cc1F [Compound 14e, 2-(dimethylamino)ethyl 4-(octylamino)-3-fluorobenzoate] | 200 ± 100 | 750 ± 860 | 
13 | CCCCCCCCNc1ccc(C(=O)OCCN(C)C)cc1Br [Compound 14f, 2-(dimethylamino)ethyl 4-(octylamino)-3-bromobenzoate] | 140 ± 30 | 240 ± 100 | 
14 | CCCCCCCCNc1ccc(C(=O)OCCN(C)C)c(Cl)c1 [Compound 14g, 2-(dimethylamino)ethyl 4-(octylamino)-2-chlorobenzoate] | 100 ± 90 | 220 ± 130 | 

From patent US9458102B2 (priority 2011, dated 2016)
